Test results reported in patent publication US7628979B1, “Use of calco oil blue V in bait formulations for marking and controlling subterranean termites” (The United States of America as represented by the …, priority 2005, dated 2009).

Assays:
C. formosanus = assay: Preliminary laboratory dose-range test of colored bait matrix; assay type: in vivo, Coptotermes formosanus
Description: (3) Incorporation of Nutrients. The dry colored alpha cellulose was then mixed with the nutritive liquid (described in U.S. Pat. No. 6,585,991 which is incorporated by reference in its entirety). The nutritive liquid was prepared by weighing 1.25 g lecithin (USB #18240), 0.450 g ergosterol (Sigma #E-6510), 3.75 g ethyl alcohol (Quantum MT #194A31), and 650 g drinking water (Barbe's dairy, West Wego, La.) into a 1 L glass bottle and mixing well using a glass bar. The opening of the bottle was covered with a foam stopper, the bottle cap was loosely placed on top of the stopper, and the stopper covered with foil. After autoclaving for 20 min at 120° C., the bottle was closed tightly and allowed to cool down. Under a laminar flow hood, yeast hydrolysate (ICN Biomed. #103304) was added to the lecithin-containing mixture using a sterile spatula and the mixture was shaken until the yeast hydrolysate was incorporated. The bottle was tightly closed. Using a sterile spatula, 667 ml lecithin-yeast hydrolysate-containing mixture was added to 333 g colored cellulose (at each of the calco oil blue V concentrations) and mixed well. The beaker was covered with foil and plastic to avoid contamination and loss of water. This mixture was stored at 5° C. up to 8 months or at room temperature for at least a month. The mixture was compacted and divided into pieces of about 25-50 g each at colorant concentrations of 50, 100, 225, 250, 500, and 750 ppm respectively. Chitin synthesis inhibitors such as Diflubenzuron (Ensystex) at a given concentration of 50, 100, 175, 200, and 250 ppm were individually weighed, dissolved in minimal amount of acetone (J. T. Baker #9010-03) in a 50 ml plastic tube, and added to the sterile liquid solution.
A concentration of 225 ppm Calco oil blue was effective as bait active ingredient taking a mean time to kill C. formosanus of 2.0 months under laboratory conditions.

[1] = tested on: Formosan subterranean termite workers; assay: Laboratory foraging-box bait test, groups of 1000 termite workers (colorant:CSI dose determination); assay type: in vivo, Coptotermes formosanus; details: for Groups of 1000 termite workers alive: of 12 boxes
Description: Under a laminar flow hood, 66 g colored cellulose powder at concentration of 50, 100, 225, 250, 500, or 750 ppm (0.010, 0.020, 0.045, 0.050, 0.100, or 0.150 g, respectively) from example 1 was mixed with 135 ml of sterile nutritional supplement (formulated as in example 1) in a 250 ml sterile glass beaker (prepared as reported by Rojas, M. G. and Morales-Ramos, J. A., “Bait matrix for delivery of chitin synthesis inhibitors to the Formosan subterranean termite [Isoptera: Rhinotermitidae],” J. Econ. Entomol., 94(2): 506-510 (2001)). A dose of 175 ppm of diflubenzuron was added to the formulations containing 50 and 100 ppm of calco oil blue. A lower dose of 50 ppm of diflubenzuron was added to the formulations containing 225 and 500 ppm of calco oil blue. The mixture was manually homogenized using a stainless steel spatula. To encase the bait matrix, tubes made of fibrous casing material (#124B; L.E.M. Products, Inc., Miamitown, Ohio) were cut into 150 mm long portions as reported by Rojas and Morales-Ramos (2001) supra. Fifty grams of bait matrix containing the blue colorant was compacted into one end of the inlet tube, at which point the open end of the inlet tube was closed with a rubber band. The bait casing was placed inside the foraging box adjacent to a 10 g piece of pine wood, taking care that they were partially covered with the sand. Control bait matrix was prepared minus blue colorant, and presented in the same was as the treatment matrix to Formosan subterranean termite workers taken from four different colonies, with 3 boxes per locality totaling twelve boxes of 1000 termites per treatment (Rojas and Morales-Ramos supra). All the experimental boxes were maintained under darkness at 27±1° C. and 90±2% relative humidity. Observations were done every 72 hours until all the termites died. The time to reach 100% mortality was measured and recorded. Mean comparisons among treatments and control were conducted.

[2] = tested on: Eastern subterranean termites; assay: In-field marking and control, bait at infested trees, site 3; assay type: in vivo; details: Site 3 (Ligastrum), 250 ppm bait
Source text: Formosan subterranean termite and native subterranean termite infested trees (Water Oaks and Legastrums) in New Orleans, La. were chosen for this study. Three sites were selected located at the Southern Regional Research Center campus. Site 1 was located near the service building next to an old water oak tree, site 2 was located in the compound area near ligastrum trees, and site 3 near ligastrum trees outside the compound area. Sites 1 and 2 were active with Formosan subterranean termites and site 3 with Eastern subterranean termites.
The colored bait matrix at 250 ppm was encapsulated as described above and placed directly in the base of the trees where termites were foraging, making sure that the encapsulated colored bait matrix was covered with soil or with a piece of wood or brick on top of it to prevent desiccation. The bait was periodically inspected for consumption and termite activity. The field study started in early August and was completed by the end of the following June. During winter (December-February) termite activity decreased considerably, but by April termite activity and foraging resumed and the blue colored matrix was replaced by bait formulation containing 250 ppm of chitin synthesis inhibitors to kill the colonies. Diflubenzuron was used in 2 of the sites and chlorfluazuron was used in the remaining site.

SMILES: CCCCC(CC)CNc1ccc(NCC(CC)CCCC)c2c1C(=O)c1ccccc1C2=O (centres unmarked) [Calco oil blue V, 9,10-anthracenedione, 1,4-bis[(2-ethylhexyl)amino]]
- mean time to kill C. formosanus (C. formosanus; 225 ppm Calco oil blue, laboratory conditions): 2.0 months
- repellence to the termites (C. formosanus; 225 ppm blue colorant in combination with a chitin synthesis inhibitor (50-175 ppm)): without any signs of repellence
- time to induce FS termite mortality (C. formosanus; 225 ppm blue colorant in combination with a chitin synthesis inhibitor (50-175 ppm), preliminary results): ≤ 2 months
- repellence to the termites (C. formosanus; colorant doses higher than 500 ppm): Some repellence was observed
- Bait consumption (C. formosanus; concentrations greater than 500 and up to 1000 ppm): bait consumption was reduced
- mean killing times (C. formosanus; concentrations greater than 500 and up to 1000 ppm, compared with 225 ppm): not significantly different
- Groups of 1000 termite workers alive ([1]; 1 Month, Calco oil blue V 50 ppm + Diflubenzuron 175 ppm): 11
- Groups of 1000 termite workers alive ([1]; 1 Month, Calco oil blue V 100 ppm + Diflubenzuron 175 ppm): 9
- Groups of 1000 termite workers alive ([1]; 1 Month, Calco oil blue V 225 ppm + Diflubenzuron 50 ppm): 7
- Groups of 1000 termite workers alive ([1]; 1 Month, Calco oil blue V 500 ppm + Diflubenzuron 50 ppm): 9
- Groups of 1000 termite workers alive ([1]; 2 Months, Calco oil blue V 50 ppm + Diflubenzuron 175 ppm): 10
- Groups of 1000 termite workers alive ([1]; 2 Months, Calco oil blue V 100 ppm + Diflubenzuron 175 ppm): 4
- Groups of 1000 termite workers alive ([1]; 2 Months, Calco oil blue V 225 ppm + Diflubenzuron 50 ppm): 2
- Groups of 1000 termite workers alive ([1]; 2 Months, Calco oil blue V 500 ppm + Diflubenzuron 50 ppm): 4
- Groups of 1000 termite workers alive ([1]; 3 Months, Calco oil blue V 50 ppm + Diflubenzuron 175 ppm): 5
- Groups of 1000 termite workers alive ([1]; 3 Months, Calco oil blue V 100 ppm + Diflubenzuron 175 ppm): 1
- Groups of 1000 termite workers alive ([1]; 3 Months, Calco oil blue V 225 ppm + Diflubenzuron 50 ppm): 0
- Groups of 1000 termite workers alive ([1]; 3 Months, Calco oil blue V 500 ppm + Diflubenzuron 50 ppm): 3
- effect on molting of immature termites ([1]; after a month and a half, 50 ppm or 100 ppm calco blue + 175 ppm diflubenzuron): immature termites molted prematurely
- effect on molting of immature termites ([1]; after a month, 225 ppm calco blue + 50 ppm diflubenzuron): immature termites molted prematurely
- time to mortality of a 1000-worker colony ([1]; calco blue + diflubenzuron combination, depending on health and age of the colony): about 4 weeks
- palatability of the bait ([1]; calco blue concentrations above 750 ppm): unpalatable
- Bait consumption ([1]; calco blue concentrations above 1000 ppm): consumption is almost nonexistent
- time some termite colonies required to begin feeding on the formulations ([1]; concentration of blue >225 ppm): more than 8 hrs
- time until experimental colony was dead ([1]; exposure to formulation containing calco oil blue V and diflubenzuron, control boxes alive after 3 months): about two months and a half
- Bait consumption ([2]; day 7): 0 g
- Bait consumption ([2]; day 14): 200 g
- Bait consumption ([2]; day 21): 150 g
- Bait consumption ([2]; day 27): 150 g
- Bait consumption ([2]; day 46): 100 g
- Bait consumption ([2]; day 56): 0 g
- Bait consumption ([2]; day 73): 0 g
- Bait consumption ([2]; day 83): 0 g
- Bait consumption ([2]; day 102): 0 g
- Bait consumption ([2]; day 159): 0 g
- Bait consumption ([2]; day 221): 0 g
- Bait consumption ([2]; day 251): 0 g
- Bait consumption ([2]; day 281): 0 g
